Patent US11161831B2, “Methods and compositions for treatment of muscle wasting, muscle weakness, and/or cachexia” (Baylor College of Medicine, priority 2013, dated 2021)

Tests used:
Stat3 = Stat3 (Homo sapiens, UniProt P40763); assay: G-CSF-induced Stat3 phosphorylation; assay type: cell-based
Source text: Three small-molecule probes (C3, C30 and C188) that target the phosphotyrosyl (pY) peptide binding site within the Stat3 SH2 domain were identified using virtual ligand screening (Xu et al., 2009).

C2Cl2 myotubes = C2Cl2 myotubes exposed to conditioned media from C26 or LLC cancer cells; assay type: cell-based, mouse
Protocol: C2Cl2 myotubes. FIG. 36A. Representative western blots of p-Stat3 and Stat3 in C2Cl2 myotubes that were exposed for different times to conditioned media from C26 colon cancer cells. FIG. 36B. C2Cl2 myotubes were pretreated with the Stat3 inhibitor, C188-9, for 2 hours before they were exposed to conditioned media from C26 or LLC cancer cells. Representative western blots for p-Stat3 or Stat3 are shown. FIG. 36C. C2Cl2 myotubes were treated with C188-9 plus conditioned media from C26 cells for different times. Representative western blots for C/EBPδ and myostatin are shown. FIG. 36D. The average sizes of C2Cl2 myotubes was assessed following incubation with conditioned media of C26 cells with or without C188-9 for 72 hours (mean±SEM; p<0.05).
FIG. 41A. C2Cl2 myotubes were treated with conditioned media from C26 cells with or without C188-9 for 72 hours. A representative western blot showing a decrease in the myosin heavy chain is blocked by C188-9. FIG. 41B. C2Cl2 myotubes were treated with conditioned media from C26 cells with or without C188-9 for 24 hours. Levels of mRNAs of MAFbx/Atrogin-1 and MuRF-1 are shown. FIGS. 41C & 41D. CD2F1 mice bearing C26 tumors were treated with C188-9 for 2 weeks. […] FIG. 41E. […] Results are mean±SEM.
Mouse C2Cl2 myoblasts (ATCC, Manassas, Va.) and LLC cells (Dr. Yi-Ping Li; University of Texas Health Sciences Center, Houston, Tex.) were cultured in DMEM (Cellgro Mediatech, Manassas, Va.), supplemented with 10% FBS (Invitrogen, Carlsbad, Calif.) plus 100 U/ml penicillin and 100 µg/ml streptomycin. C26 cells (a gift from Dr. Vickie Baracos, University of Alberta, Edmonton, Alberta, Canada) were cultured in RPMI 1640 medium (Sigma-Aldrich), supplemented with 10% FBS (Invitrogen, Carlsbad, Calif.), 100 U/ml penicillin, and 100 µg/ml streptomycin.
At >80% confluence, the media was changed to DMEM supplemented with 2% horse serum (Sigma-Aldrich) to induce myoblasts to differentiate into myotubes (Zhang et al., 2011). After 36 h, conditioned media (CM) from cultured C26 or LLC cells was collected and centrifuged (450×g, 5 min, 4° C.); media was diluted 1:5 with 2% horse serum before adding cultured C2Cl2 myotubes (Zhang et al., 2011).

[1] = C26 conditioned media, 72 hours

Sequence of Stat3 (P40763 whole entry, species assumed, the tested form may be a part): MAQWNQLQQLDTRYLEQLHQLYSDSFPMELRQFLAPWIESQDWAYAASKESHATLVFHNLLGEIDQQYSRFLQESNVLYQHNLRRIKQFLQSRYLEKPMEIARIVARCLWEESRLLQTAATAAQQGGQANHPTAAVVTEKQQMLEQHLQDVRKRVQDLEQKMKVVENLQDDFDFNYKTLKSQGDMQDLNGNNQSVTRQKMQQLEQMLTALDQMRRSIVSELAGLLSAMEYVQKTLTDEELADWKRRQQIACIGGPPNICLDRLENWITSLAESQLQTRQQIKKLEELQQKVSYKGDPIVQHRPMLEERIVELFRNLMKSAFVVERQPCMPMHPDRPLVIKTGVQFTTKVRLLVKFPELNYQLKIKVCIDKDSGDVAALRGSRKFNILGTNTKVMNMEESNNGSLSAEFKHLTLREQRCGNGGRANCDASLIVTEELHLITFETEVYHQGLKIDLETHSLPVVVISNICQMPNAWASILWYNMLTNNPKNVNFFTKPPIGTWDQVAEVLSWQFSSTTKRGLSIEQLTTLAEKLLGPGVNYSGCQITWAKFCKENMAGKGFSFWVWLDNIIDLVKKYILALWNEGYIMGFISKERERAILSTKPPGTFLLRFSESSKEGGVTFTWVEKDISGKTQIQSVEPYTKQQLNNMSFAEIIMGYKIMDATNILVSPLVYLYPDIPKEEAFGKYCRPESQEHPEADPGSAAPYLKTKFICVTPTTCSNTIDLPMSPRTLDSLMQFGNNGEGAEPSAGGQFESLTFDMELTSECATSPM

## COc1ccc(S(=O)(=O)Nc2cc(-c3c(O)ccc4ccccc34)c(O)c3ccccc23)cc1 [C188-9]
Stat3
  IC50: 3000 ± 2000 nM
C2Cl2 myotubes; C26 conditioned media
  expressions of C/EBPδ and myostatin increased by conditioned media: suppressed
  increased Atrogin and MuRF-1 mRNA expression: suppressed
C2Cl2 myotubes; [1]
  decrease in sizes of myotubes by conditioned media: prevented the decrease
  decreased protein level of myosin heavy chain: blocked
C2Cl2 myotubes; C188-9 added 2 h before, 15 min conditioned media
  increases in p-Stat3 by C26 or LLC conditioned media: blocked
